Measurements published in patent publication US20190091248A1, “AGENT FOR INCREASING INTESTINAL BUTYRIC ACID AND PROLIFERATION AGENT FOR BUTYRIC ACID-PRODUCING BACTERIA” (B FOOD SCIENCE CO., LTD., priority 2016, published 2019).

Legend:
[1] = system: LIM1215, human colorectal cancer cells; conditions: final concentration of 1 mmol/L; cited from earlier work
[2] = system: fatty degeneration and inflammation in the liver by the intake of high-fat meals; conditions: oral administration, 0.02 g/kg body weight per day; cited from earlier work
[3] = system: obesity induced by high-fat meals; conditions: cited from earlier work
[4] = system: childhood diabetes model rat; conditions: intraperitoneal, 500 mg/kg of body weight per day (in terms of the dose of sodium butyrate); cited from earlier work
[5] = system: ulcerative colitis model rats induced by dextran sulfate sodium (DSS); conditions: injection into the intestine; cited from earlier work
Akkermansia muciniphila = assay: Real-time PCR of 16S rDNA copy number in cecal contents upon intake of 1-kestose; assay type: in vivo, SD rats
Procedure: (§1) The amounts of the following 4 microorganisms in the cecal contents of rats in Groups A and E described in Example 1 (1) were measured by real-time PCR.
4. Akkermansia muciniphila
(§2) Specifically, the cecal contents of Groups A and E were disrupted with the bead beating system “FastPrep FP100A” (MP Biomedicals, LLC.). Subsequently, genomic DNA was extracted with the nucleic acid extraction instrument “Magtration® System 12GC” and its exclusive reagent “MagDEA® DNA 200” (Precision System Science Co., Ltd.) according to the instructions. Using this genomic DNA as a template, the real-time PCR was performed with primers specific for the 16S rDNAs of the aforementioned 4 microorganisms, the real-time PCR reagent “SYBR® Premix Ex Taq II (Tli RNaseH Plus)” (Takara), and the real-time PCR device “Rotor-Gene Q” (QIAGEN N.V.) and the copy numbers of the 16S rDNA from each microorganism per 1 g of the cecal contents were determined. The means and standard deviation of the copy numbers were calculated for each group and illustrated in bar graphs.
(§3) The sequences of the primers specific for 16S rDNA of each microorganism are listed below.
(§4) The standard curve was made from the result of real-time PCR for each microorganism under the same conditions using a plasmid DNA in which a part of the following sequence is incorporated as a template.
4. […]

[6] = system: short chain fatty acids in cecal contents; assay: Amount of intestinal short chain fatty acid in cecal contents upon intake of 1-kestose (GC/MS); assay type: in vivo, SD rats; conditions: for concentration of butyric acid in cecal contents: 30 days ad libitum; for amount of butyric acid in cecal contents: 30 days, calculated from concentration, Group A 781.14 μg
Procedure: (1) Breeding of Rats with Giving Oral Intake of 1-Kestose
The feeds containing 0, 0.5, 1.0, 2.5, and 5% by mass of 1-kestose were prepared by CLEA Japan, Inc. on commission. The composition of the feeds is described below. 40 SD rats (Japan SLC, Inc.) were divided into 5 groups of 8 animals and designated as Groups A to E. The rats were maintained for 30 days with ad libitum feeding of the feed without 1-kestose to Group A and of the ones with 1-kestose to Groups B to E, respectively. The rats were maintained under conditions at 23±1° C. in temperature with 12 hours of light periods (from 8:00 to 20:00) and 12 hours of dark periods (from 20:00 to 8:00).
[Composition (in % by mass) of feeds] Cornstarch 39.7486, milk casein 20, pregelatinized cornstarch 13.2, granulated sugar and/or 1-kestose (99% by mass in purity, B Food Science Co., Ltd.) 10, purified soybean oil 7, cellulose powder 5, mineral mixture 3.5, vitamin mixture 1, L-cystine 0.3, choline bitartrate 0.25, tert-butylhydroquinone 0.0014.
The rats in each group described in Example 1 (1) were dissected and their ceca were extracted. The contents of the ceca were collected and weighed. The concentrations of short chain fatty acids (butyric acid, propionic acid, isobutyric acid, acetic acid, isovaleric acid, and valeric acid) in the cecal contents were measured with a gas chromatography-mass spectrometer (GC/MS). The amounts of the short chain fatty acids in the cecal contents were calculated from the results of the measurement of the short chain fatty acid concentrations. Subsequently, the means of concentrations and amounts of short chain fatty acids for each group were calculated and shown in bar graphs. The results are illustrated in FIGS. 1 to 3.

The genus Lactobacillus = assay: Real-time PCR of 16S rDNA copy number in cecal contents upon intake of 1-kestose; assay type: in vivo, SD rats
Procedure: as §1
3. The genus Lactobacillus
as §2, §3, §4
3. […]

[7] = system: Clostridium cluster-XIVa and Clostridium cluster-XIVb (a group of butyric acid-producing bacteria); assay: as above; assay type: in vivo, SD rats
Procedure: as §1
2. Clostridium cluster-XIVa and Clostridium cluster-XIVb (a group of butyric acid-producing bacteria),
as §2, §3, §4
2. Clostridium clusters-XIVa and -XIVb (a group of butyric acid-producing bacteria); 16S rDNA sequence (SEQ ID NO: 10) of Clostridium clostridioforme JCM1291T

[8] = Food processing and ingredients, Vol. 49, No. 12, p. 9, 2014; cited from earlier work
[9] = system: The genus Bifidobacterium; assay: Real-time PCR of 16S rDNA copy number in cecal contents upon intake of 1-kestose; assay type: in vivo, SD rats; conditions: Group E
Procedure: as §1
1. The genus Bifidobacterium,
as §2, §3, §4
1. […]

[10] = Group B: feed with 0.5% by mass 1-kestose
[11] = Group C: feed with 1.0% by mass 1-kestose
[12] = Group D: feed with 2.5% by mass 1-kestose
[13] = Group E: feed with 5% by mass 1-kestose
[14] = Groups B, C, D and E, cecal contents

SMILES: CCCC(=O)O [butyric acid]
- proliferation rate [1]: decrease
- proliferation time [1]: extend
- fatty degeneration and inflammation in the liver by the intake of high-fat meals [2]: suppress
- values of AST, ALT, cholesterol, LDL in blood, neutral fat and fasting blood sugar levels, and insulin resistance index (HOMA-IR) [2]: normalize
- body weight and the body fat percentage ([3]; oral, 5 g/kg body weight per day (in terms of sodium butyrate), mice in which obesity has been induced by high-fat meals): reduce
- weight gain and increase of the body fat percentage by eating of high-fat meals ([3]; oral, 5 g/kg body weight per day (in terms of sodium butyrate), mice that are not obese): suppress
- function and proliferation of β cells [4]: improve
- glucose homeostasis [4]: improve
- β cell death [4]: decrease
- inflammatory repair effect [5]: significant inflammatory repair effect

SMILES: CCCC(=O)[O-].[Na+] [sodium butyrate]
- increase of body weight and increase of the body fat percentage ([3]; mice fed on high-fat meals into which 5% by mass is mixed): suppressed

SMILES: OC[C@H]1O[C@@](CO)(OC[C@@]2(O[C@H]3O[C@H](CO)[C@@H](O)[C@H](O)[C@H]3O)O[C@H](CO)[C@@H](O)[C@@H]2O)[C@@H](O)[C@@H]1O [1-kestose]
- copy number of 16S rDNA from Akkermansia muciniphila, Group E versus Group A (Akkermansia muciniphila): did not have significant difference
- increase of butyric acid amount relative to Group A [6, 10]: approximately 1.4 times of that in Group A
- increase of butyric acid concentration relative to Group A [6, 10]: approximately 1.4 times of that in Group A
- concentration of butyric acid in cecal contents ([6]; Group B: feed with 0.5% by mass 1-kestose, daily intake 0.27 g/kg body weight, Group A (no 1-kestose) 205.86 μg/g): 288.09 µg/g
- amount of butyric acid in cecal contents [6, 10]: 1069.37 µg
- increase of butyric acid amount relative to Group A [6, 11]: approximately 1.4 times of that in Group A
- increase of butyric acid concentration relative to Group A [6, 11]: approximately 1.5 times of that in Group A
- concentration of butyric acid in cecal contents ([6]; Group C: feed with 1.0% by mass 1-kestose, Group A 205.86 μg/g): 314.59 µg/g
- amount of butyric acid in cecal contents [6, 11]: 1107.92 µg
- increase of butyric acid amount relative to Group A [6, 12]: approximately 3.6 times of that in Group A
- increase of butyric acid concentration relative to Group A [6, 12]: approximately 3.7 times of that in Group A
- concentration of butyric acid in cecal contents ([6]; Group D: feed with 2.5% by mass 1-kestose, Group A 205.86 μg/g): 754.17 µg/g
- amount of butyric acid in cecal contents [6, 12]: 2891.65 µg
- increase of butyric acid amount relative to Group A [6, 13]: approximately 14.5 times of that in Group A
- increase of butyric acid concentration relative to Group A [6, 13]: approximately 10 times of that in Group A
- concentration of butyric acid in cecal contents ([6]; Group E: feed with 5% by mass 1-kestose, 1.34 g/kg body weight, Group A 205.86 μg/g): 2005.26 µg/g
- amount of butyric acid in cecal contents [6, 13]: 11943.88 µg
- concentrations and amounts of acetic acid in comparison with Group A [6, 14]: significantly increased
- concentrations and amounts of isobutyric acid in comparison with Group A [6, 14]: significantly decreased
- concentrations and amounts of isovaleric acid in comparison with Group A [6, 14]: not significantly different
- concentrations and amounts of propionic acid in comparison with Group A [6, 14]: not significantly different
- concentrations and amounts of valeric acid in comparison with Group A [6, 14]: significantly decreased
- concentrations and amounts of butyric acid in comparison with Group A ([6]; any of Groups B to E (0.5 to 5% by mass 1-kestose in feed)): markedly increased
- copy number of 16S rDNA from Lactobacillus, Group E versus Group A (The genus Lactobacillus): did not have significant difference
- copy number of 16S rDNA from the group of butyric acid-producing bacteria relative to Group A ([7]; Group E): approximately 5 times of that in Group A
- copy number of 16S rDNA from the group of butyric acid-producing bacteria, comparison with Group A in words ([7]; Group E): significantly increased
- copy number of 16S rDNA from Clostridium cluster XIV (a group of butyric acid-producing bacteria) ([7]; Group E (5% by mass 1-kestose in feed, 30 days), Group A 5071250000): 25287500000 per 1 g of the cecal contents
- toxicity in mutagenicity, acute toxicity, subchronic toxicity, and chronic toxicity tests [8]: no toxicity
- copy number of 16S rDNA from the genus Bifidobacterium in comparison with Group A [9]: significantly increased
